In patent US12084445B2, “Broad-spectrum carbapenems” (VenatoRx Pharmaceuticals, Inc., priority 2018, dated 2024) one finds MIC data, which are given here for 11 molecules.

As usually defined, the MIC is the smallest concentration in the dilution series that meets the test's criterion for growth inhibition.

What all share (format): cell-based
The test system of assay [1] is S. aureus ATCC 33591 (methicillin-resistant). The experiment in a line: broth microdilution MIC assay, S. aureus ATCC 33591. The note with it: Staphylococcus aureus, ATCC33591; Table 4; S. aureus 33591; read-out: S. aureus 33591 MIC. An outline of the steps:
(§1)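 Growth inhibition was scored by eye after 16-20 h at 37 °C in Mueller-Hinton broth. Each well received 5×10^5 CFU/mL of log-phase culture plus compound from a 2-fold dilution series.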
For orientation: Broth dilution looks for growth in wells or tubes with falling amounts of substance.

The subject of assay [2] is E. coli ATCC 25922 (wild-type/QC strain). The experiment in a line: broth microdilution MIC assay, E. coli ATCC 25922. The note with it: Escherichia coli, ATCC25922; Table 4; E. coli 25922; read-out: E. coli 25922 MIC. In a few lines:
as §1

The test system of assay [3] is P. aeruginosa ATCC 27853 (wild-type/QC strain). The experiment in a line: broth microdilution MIC assay, P. aeruginosa ATCC 27853. The note with it: Pseudomonas aeruginosa, ATCC27853; Table 5; P. aeruginosa 27853; read-out: P. aeruginosa 27853 MIC. An outline of the steps: as §1
Another assay deals with S. aureus USA 300. The experiment in a line: broth microdilution MIC assay, S. aureus USA 300. The note with it: Staphylococcus aureus; Table 4; S. aureus USA300; read-out: S. aureus USA300 MIC. The protocol:
(§2) To determine the ability of test compounds to potentiate the inhibition of the growth of bacterial strains, classic cell-based broth microdilution MIC assays were employed. MIC assays are performed according to CLSI methods except where otherwise noted (CLSI, 2011 and CLSI, 2009). The reference strains S. aureus ATCC 29213 (methicillin sensitive), S. aureus ATCC 33591 (methicillin-resistant), E. coli ATCC 25922 (wild-type/QC strain), P. aeruginosa ATCC 27853 (wild-type/QC strain), and the clinical isolate P. aeruginosa PA 8 were used to determine the ability of the exemplary carbapenem compounds to inhibit bacterial growth. An expanded panel of methicillin resistance S. aureus (MRSA) and Pseudomonas was also used to determine the ability of exemplary carbapenem compounds to inhibit bacterial growth across a broader representation of those species. To determine activity in MRSA and in addition to S. aureus ATCC 33591, S. aureus USA 300, USA 400 and USA 600, some of the most common clones found to cause human infection, were also used. To further gauge the impact on the carbapenem compounds due to various resistance mechanisms in Pseudomonas, the following strains were included: P. aeruginosa 35151 (hyper-permeable strain), P. aeruginosa AmexAB-OprM (an efflux pump knockout), and P. aeruginosa PA 3 (a clinical isolate of reduced carbapenem susceptibility). Briefly, cryo-preserved bacterial cultures of clinical strains are streaked for isolation on appropriate agar medium, in this case Mueller Hinton II agar. Following incubation to allow formation of colonies, these plates are sealed with parafilm and stored refrigerated for up to two weeks. For preparation of assay inocula and to ensure low variability, at least 5 colonies are picked from the agar plates with an inoculating loop and aseptically transferred to a culture tube containing 3 mL of Mueller-Hinton Broth (supplemented with divalent cations to required levels based on Manufacturers' specification). The broth culture is grown for 3-5 hours at 37° C. with shaking at 200 rpm. Meanwhile, 2-fold serial dilutions of test compounds are conducted in a 96 well plate with a final volume of 75 μL per well at 2-fold the final desired concentration. After the dilution plates are set up the growing cultures are then diluted in a cuvette containing MH II broth and the optical density is measured at 600 nm. Inocula are diluted such that 75 μL of this culture in Mueller-Hinton Broth results in a starting bacterial concentration of 5×10^5 CFU/mL when added to the dilution plates. The plates are incubated 16-20 hours at 37° C. The MIC is read visually as the lowest concentration well with no bacterial growth.
(§3) Representative results are shown in Tables 3, 4, and 5 where A represents an MIC>32 μg/mL, B represents an MIC between 8 and 32 μg/mL inclusive, C represents an MIC between 1 and 4 μg/mL inclusive, and D represents an MIC of <1 μg/mL. NT=Not Tested.

The subject of a further assay is S. aureus USA600. The experiment in a line: broth microdilution MIC assay, S. aureus USA 600. The note with it: Staphylococcus aureus; Table 4; S. aureus USA600; read-out: S. aureus USA600 MIC. The protocol:
as §2, §3

For assay [4], the system named is P. aeruginosa 35151 (hyper-permeable strain). The experiment in a line: broth microdilution MIC assay, P. aeruginosa 35151. The note with it: Pseudomonas aeruginosa, read-out: P. aeruginosa 35151 MIC. The protocol: as §2, §3
For assay [5], the system named is P. aeruginosa ΔmexAB-OprM (an efflux pump knockout). The experiment in a line: broth microdilution MIC assay, P. aeruginosa ΔmexAB-OprM. The note with it: Pseudomonas aeruginosa, 20 h, read-out: P. aeruginosa ΔmexAB-OprM MIC. The method, then:
as §2, §3

`C[C@@H](O)[C@H]1C(=O)N2C(C(=O)O)=C(SC3CN(C[C@H]4CC[C@@H](N)CC4)C3)[C@H](C)[C@H]12` [Example 64, (4R,5S,6S)-3-((1-(((1s,4S)-4-aminocyclohexyl)methyl)azetidin-3-yl)thio)-6-((R)-1-hydroxyethyl)-4-methyl-7-oxo-1-azabicyclo[3.2.0]hept-2-ene-2-carboxylic acid]: the minimum inhibitory concentration (MIC) in assay [1] was 1 to 4 µg/mL; in assay [2] it was below 1 µg/mL; in assay [3] it was 1 to 4 µg/mL; with S. aureus USA 300, below 1 µg/mL; in the assay with S. aureus USA600, below 1 µg/mL; in assay [4], below 1 µg/mL. For the same molecule, in assay [5], the MIC was 1 to 4 µg/mL.

On to `C[C@@H](O)[C@H]1C(=O)N2C(C(=O)O)=C(S[C@@H]3CCN(CC4CCNCC4(C)C)C3)[C@H](C)[C@H]12` (stereo partly drawn) [Example 65, (4R,5S,6S)-3-(((3R)-1-((3,3-dimethylpiperidin-4-yl)methyl)pyrrolidin-3-yl)thio)-6-((R)-1-hydroxyethyl)-4-methyl-7-oxo-1-azabicyclo[3.2.0]hept-2-ene-2-carboxylic acid], for which the minimal inhibitory concentration (MIC) in assay [1] is 1 to 4 µg/mL; in assay [2] it was below 1 µg/mL; in assay [3] it was 8 to 32 µg/mL; with S. aureus USA 300, 1 to 4 µg/mL; in the assay on S. aureus USA600 it was 1 to 4 µg/mL; in assay [4], below 1 µg/mL. Moreover, the MIC in assay [5] was 1 to 4 µg/mL.

For `CNC1CCC(CN2CC(SC3=C(C(=O)O)N4C(=O)[C@H]([C@@H](C)O)[C@H]4[C@H]3C)C2)CC1` (stereo partly drawn) [Example 66, (4R,5S,6S)-6-((R)-1-hydroxyethyl)-4-methyl-3-((1-(((1s,4S)-4-(methylamino)cyclohexyl)methyl)azetidin-3-yl)thio)-7-oxo-1-azabicyclo[3.2.0]hept-2-ene-2-carboxylic acid], the minimum inhibitory concentration (MIC) in assay [1] was 1 to 4 µg/mL; in assay [2], below 1 µg/mL; in assay [3], 1 to 4 µg/mL; in the assay on S. aureus USA 300, 1 to 4 µg/mL; with S. aureus USA600 it was 1 to 4 µg/mL; in assay [4], below 1 µg/mL. Further, in assay [5], the minimum inhibitory concentration (MIC) was in the range of 1 to 4 µg/mL.

For `C[C@@H](O)[C@H]1C(=O)N2C(C(=O)O)=C(SC3CN(C[C@H]4CC[C@H](NC(=N)N)CC4)C3)[C@H](C)[C@H]12` [Example 67, (4R,5S,6S)-3-((1-(((1r,4R)-4-guanidinocyclohexyl)methyl)azetidin-3-yl)thio)-6-((R)-1-hydroxyethyl)-4-methyl-7-oxo-1-azabicyclo[3.2.0]hept-2-ene-2-carboxylic acid], the MIC is 1 to 4 µg/mL in assay [1]; below 1 µg/mL in assay [2]; 1 to 4 µg/mL in assay [3]; 1 to 4 µg/mL in the assay on S. aureus USA 300; below 1 µg/mL in the assay on S. aureus USA600; below 1 µg/mL in assay [4]. Moreover, the minimum inhibitory concentration (MIC) in assay [5] was in the range of 1 to 4 µg/mL.

Regarding `CN[C@H]1CC[C@H](CN2CC(SC3=C(C(=O)O)N4C(=O)[C@H]([C@@H](C)O)[C@H]4[C@H]3C)C2)CC1` [Example 68, (4R,5S,6S)-6-((R)-1-hydroxyethyl)-4-methyl-3-((1-(((1r,4R)-4-(methylamino)cyclohexyl)methyl)azetidin-3-yl)thio)-7-oxo-1-azabicyclo[3.2.0]hept-2-ene-2-carboxylic acid], the minimal inhibitory concentration (MIC) in assay [1] is 1 to 4 µg/mL; in assay [2] it was below 1 µg/mL; in assay [3], 1 to 4 µg/mL; with S. aureus USA 300, 1 to 4 µg/mL; in the assay on S. aureus USA600, 1 to 4 µg/mL; in assay [4], below 1 µg/mL. Further, in assay [5], the MIC was in the range of 1 to 4 µg/mL.

With `CCN[C@H]1CC[C@H](CN2CC(SC3=C(C(=O)O)N4C(=O)[C@H]([C@@H](C)O)[C@H]4[C@H]3C)C2)CC1` [Example 69, (4R,5S,6S)-3-((1-(((1r,4R)-4-(ethylamino)cyclohexyl)methyl)azetidin-3-yl)thio)-6-((R)-1-hydroxyethyl)-4-methyl-7-oxo-1-azabicyclo[3.2.0]hept-2-ene-2-carboxylic acid], the minimum inhibitory concentration (MIC) is 1 to 4 µg/mL in assay [1]; below 1 µg/mL in assay [2]; 1 to 4 µg/mL in assay [3]; 1 to 4 µg/mL with S. aureus USA 300; 1 to 4 µg/mL in the assay with S. aureus USA600; below 1 µg/mL in assay [4]. Further, the minimum inhibitory concentration (MIC) in assay [5] was in the range of 1 to 4 µg/mL.

Regarding `CCN[C@H]1CC[C@@H](CN2CC(SC3=C(C(=O)O)N4C(=O)[C@H]([C@@H](C)O)[C@H]4[C@H]3C)C2)CC1` [Example 70, (4R,5S,6S)-3-((1-(((1s,4S)-4-(ethylamino)cyclohexyl)methyl)azetidin-3-yl)thio)-6-((R)-1-hydroxyethyl)-4-methyl-7-oxo-1-azabicyclo[3.2.0]hept-2-ene-2-carboxylic acid], the MIC in assay [1] is 1 to 4 µg/mL; in assay [2] it was below 1 µg/mL; in assay [3] it was 1 to 4 µg/mL; with S. aureus USA 300, 1 to 4 µg/mL; in the assay on S. aureus USA600, 1 to 4 µg/mL; in assay [4], below 1 µg/mL. For the same molecule, in assay [5], the MIC was in the range of 1 to 4 µg/mL.

As to `C[C@@H](O)[C@H]1C(=O)N2C(C(=O)O)=C(SC3CN(CCC4CCN(C(=N)N)CC4)C3)[C@H](C)[C@H]12` [Example 71, (4R,5S,6S)-3-((1-(2-(1-carbamimidoylpiperidin-4-yl)ethyl)azetidin-3-yl)thio)-6-((R)-1-hydroxyethyl)-4-methyl-7-oxo-1-azabicyclo[3.2.0]hept-2-ene-2-carboxylic acid], the MIC was 1 to 4 µg/mL in assay [1]; below 1 µg/mL in assay [2]; 1 to 4 µg/mL in assay [3]; 1 to 4 µg/mL with S. aureus USA 300; below 1 µg/mL in the assay with S. aureus USA600; below 1 µg/mL in assay [4]. Moreover, the MIC in assay [5] fell in the range of 1 to 4 µg/mL.

As for `C[C@@H](O)[C@H]1C(=O)N2C(C(=O)O)=C(SC3CN(C[C@H]4CC[C@H](N(C)C(=N)N)CC4)C3)[C@H](C)[C@H]12` [Example 72, (4R,5S,6S)-6-((R)-1-hydroxyethyl)-4-methyl-3-((1-(((1r,4R)-4-(1-methylguanidino)cyclohexyl)methyl)azetidin-3-yl)thio)-7-oxo-1-azabicyclo[3.2.0]hept-2-ene-2-carboxylic acid], the MIC was 1 to 4 µg/mL in assay [1]; below 1 µg/mL in assay [2]; 8 to 32 µg/mL in assay [3]; 1 to 4 µg/mL with S. aureus USA 300; below 1 µg/mL in the assay with S. aureus USA600; below 1 µg/mL in assay [4]. In assay [5], the MIC was 1 to 4 µg/mL.

For the molecule `C[C@@H](O)[C@H]1C(=O)N2C(C(=O)O)=C(SC3CN(C[C@H]4CC[C@@H](NC(=N)N)CC4)C3)[C@H](C)[C@H]12` [Example 73, (4R,5S,6S)-3-((1-(((1s,4S)-4-guanidinocyclohexyl)methyl)azetidin-3-yl)thio)-6-((R)-1-hydroxyethyl)-4-methyl-7-oxo-1-azabicyclo[3.2.0]hept-2-ene-2-carboxylic acid], the MIC was 1 to 4 µg/mL in assay [1]; below 1 µg/mL in assay [2]; 1 to 4 µg/mL in assay [3]; 1 to 4 µg/mL in the assay on S. aureus USA 300; below 1 µg/mL with S. aureus USA600; below 1 µg/mL in assay [4]. Also, the minimum inhibitory concentration (MIC) in assay [5] is below 1 µg/mL.

In the case of `C[C@@H](O)[C@H]1C(=O)N2C(C(=O)O)=C(SC3CN(C[C@H]4CC[C@@H](N(C)C(=N)N)CC4)C3)[C@H](C)[C@H]12` [Example 74, (4R,5S,6S)-6-((R)-1-hydroxyethyl)-4-methyl-3-((1-(((1s,4S)-4-(1-methylguanidino)cyclohexyl)methyl)azetidin-3-yl)thio)-7-oxo-1-azabicyclo[3.2.0]hept-2-ene-2-carboxylic acid], the MIC in assay [1] is 1 to 4 µg/mL; in assay [2], below 1 µg/mL; in assay [3] it was 8 to 32 µg/mL; in the assay with S. aureus USA 300, 1 to 4 µg/mL; in the assay on S. aureus USA600 it was 1 to 4 µg/mL; in assay [4] it was below 1 µg/mL. Besides, the MIC in assay [5] lay in the range of 1 to 4 µg/mL.
